Results from PMC6792352, “Limited Chemical Structural Diversity Found to Modulate Thyroid Hormone Receptor in the Tox21 Chemical Library” (Environmental Health Perspectives, 2019).
Counter-ions that a name gives are not always drawn.

Assay: in vitro
Conditions: rat, gh3-tre-luc cells

Compound	CC50 at 24 h (AC50 (uM) modified / 1000) [µM]	other results
O=C(/C=C/c1ccc(O)c(O)c1)O[C@@H]1C[C@](O)(C(=O)O)C[C@@H](O)[C@H]1O [Chlorogenic acid]	> 90	
CCOCC(O)COc1ccc(NC(=O)CC[S+](C)C)cc1 (stereo not drawn) [Suplatast tosylate]	> 50	
CCCCCCCCCCCCCCCCCC[N+](C)(C)C [N,N,N-Trimethyloctadecan-1-aminium chloride]	13.4	
O=C1N=C2SCCN2C(=O)C1Cc1ccc(Cl)cc1 (stereo not drawn) [Nuclomedone]	> 50	
O=C(O[C@H]1CN2CCC1CC2)N1CCc2ccccc2[C@@H]1c1ccccc1 [Solifenacin hydrochloride]	19.6	
c1ccc2c(c1)Nc1ccccc1S2 [Phenothiazine]	> 90	
CC(=O)C(C)(C)C [3,3-Dimethyl-2-butanone]		CC50 at 24 h (AC50 (uM) modified / 1000, Tox21_110001=Tox21_200060, viability, 1 nM T3 present, 24 h): > 100 µM
OCC(O)CN1CCN(c2ccccc2)CC1 (stereo not drawn) [Dropropizine]	> 50	
C#CCOc1ccc2c(C)cc(=O)oc2c1 [Giparmen]	> 50	
CC(=O)c1ccc(C)cc1 [p-Methylacetophenone]	> 90	
BrCC(Br)(Br)Br [1,1,1,2-Tetrabromoethane]	> 90	
COc1cc(Cl)ccc1Oc1ccc(Cl)cc1Cl [Methyl triclosan]	60.4	
COc1ccc(C(=O)CCC(=O)O)c2ccccc12 [Menbutone]	> 50	
C=CC(=O)OCC1CCCO1 (stereo not drawn) [Tetrahydrofurfuryl acrylate]	> 90	
CCCCOc1cc(C(=O)OCCN(CC)CC)ccc1N [Benoxinate hydrochloride]	> 20	
CO/N=C(\C(=O)N[C@@H]1C(=O)N2C(C(=O)O)=C(C[N+]3(C)CCCC3)CS[C@H]12)c1csc(N)n1 [Cefepime chloride hydrochloride hydrate]	> 50	
N#Cc1ccncc1 [4-Pyridinecarbonitrile]		CC50 at 24 h (AC50 (uM) modified / 1000, Tox21_110001=Tox21_300741, viability, 1 nM T3 present, 24 h): > 100 µM
CC(O)CC(C)(C)O (stereo not drawn) [2-Methyl-2,4-pentanediol]	> 90	
CCn1c2ccccc2c2cc([N+](=O)[O-])ccc21 [9-Ethyl-3-nitro-9H-carbazole]	> 90	
NNc1nc(-c2ccc(N)cc2)cs1 [2-Hydrazino-4-(4-aminophenyl) thiazole]	74.8	
CC(=O)SCC(Cc1ccccc1)C(=O)NCC(=O)OCc1ccccc1 (stereo not drawn) [Racecadotril]	> 20	

Compound	CC50 at 24 h (AC50 (uM) modified / 1000) [µM]	other results
Oc1ccc(CCNCCCCCCNCCc2ccccc2)cc1O [Dopexamine]	37.1	
Cc1c(Cl)cccc1Cl [2,6-Dichlorotoluene]	> 90	
CCN(CC)CCNC(=O)c1cc(S(C)(=O)=O)ccc1OC [Tiapride hydrochloride]	> 20	
CCCCCCCCCOC(=O)c1ccccc1C(=O)OCCCCCCCCC [Dinonyl phthalate]	> 90	
C=C(C)C(=O)OCCCCCCCCCC [Decyl methacrylate]	> 90	
Cc1cccc(C#N)c1 [3-Methylbenzonitrile]		CC50 at 24 h (AC50 (uM) modified / 1000, Tox21_110001=Tox21_200853, viability, 1 nM T3 present, 24 h): > 90 µM
C=C(CC(=O)O)C(=O)O [Methylenebutanedioic acid]	> 90	
C[C@H](O)CCO [1,3-Butanediol]	> 90	
CCC(=O)C(CC(C)N(C)C)(c1ccccc1)c1ccccc1 (stereo not drawn) [Methadone hydrochloride]	28.5	
SCCSCCS [2,2'-Sulfanediyldiethanethiol]	> 90	
O=C1c2ccccc2C(=O)C1c1ccc(F)cc1 [Fluindione]	> 50	
CCCCNc1ccc(C(=O)OCCN(CC)CC)cc1 [Depolipon]	> 50	
C[C@]12CCC(=O)C[C@@H]1CC[C@@H]1[C@@H]2CC[C@]2(C)C=CC[C@@H]12 [Androstenone]	> 50	
CC(C)(O)CCc1ccccc1 [2-Methyl-4-phenylbutan-2-ol]	> 90	
CCOC(=S)SSC(=S)OCC [Bis(ethylxanthogen)]	> 90	
O=C(O)c1nc(Cl)ccc1Cl [Clopyralid]	> 90	
CC1(C)[C@@H](O[C@H]2O[C@H](C(=O)O)[C@@H](O)[C@H](O)[C@H]2O[C@@H]2O[C@H](C(=O)O)[C@@H](O)[C@H](O)[C@H]2O)CC[C@]2(C)[C@H]3C(=O)C=C4[C@@H]5C[C@@](C)(C(=O)O)CC[C@]5(C)CC[C@@]4(C)[C@]3(C)CC[C@@H]12 [Ammonium glycyrrhizinate trihydrate]	> 70	
C=CC(=O)OCCCCCCCC(C)C [Isodecyl acrylate]	> 90	
CCc1ccc(C(=O)C(C)CN2CCCCC2)cc1 (stereo not drawn) [Eperisone hydrochloride]	> 50	
CC(=O)Nc1cc([As](=O)(O)O)ccc1O [Acetarsol]		CC50 at 24 h (AC50 (uM) modified / 1000, Tox21_110001=Tox21_111336, viability, 1 nM T3 present, 24 h): > 50 µM
NS(=O)(=O)c1cc2c(cc1C(F)(F)F)NC(Cc1ccccc1)NS2(=O)=O (stereo not drawn) [Bendroflumethiazide]	> 20	
